Reference: PMC10895678 (Journal of Medicinal Chemistry, 2024)
Converted amounts (≈) assume the structure as drawn. “And” between values parts separate entries of the source, which are not always exact repeats. Equal values may be shown once. Read-outs that look alike come from different tables or passages of the source.

Legend:
M. bovis BCG = assay: microbe, parasite or virus in culture; format: cell-based; conditions: Mycobacterium tuberculosis variant bovis BCG, read-out: BCG MBC
[1] = Mouse PK, combined (cassette) dosing of BGAz-001–005; format: in vivo, KM mice; design: AUMC(0-t) / VRT(0-t) / λz: unit not given here; conditions: for AUC(0-t): read-out: AUC(0-t); for MRT last: read-out: MRT(0-t); for MRT inf: read-out: MRT(0-∞); for Vd/F: read-out: Vz/F
Excerpt: Methods for combined single dosing (BGAz001–005) and dosing of single compounds multiple times (BGAz004 and BGAz005) are described in detail in the Supporting Information (PK Data).
Report on PK Results of Combined Dosing with BGAz-001–005
1 Materials and instrument combined dosing
An MS2 Turnover type oscillator was purchased from IKA Work’s Guangzhou (China), and a 5415R ChromatographicanalyseswereconductedusinganAgilent1290InfinityIIhighperformanceliquidchromatography andAgilentTechnologies6470TripleQuadLC/MS.Propranolol(≥90%inpurity,internalstandard,IS)waspurchased fromtheSigmaChemicalCo.(China).Formicacid(HPLCgrade)andmethanol(HPLCgrade)werepurchasedfrom DIKMACo.(China).Allchemicalsandsolventswereanalyticalgrade.WaterwaspurifiedusingaMillipore(AK,USA) laboratoryultra-purewatersystem(0.2μmfilter).
KMmice,weighing25–35g(BeijingVitalRiverLaboratoryAnimalTechnologyCo.,Ltd.,China)wereutilisedforthe studies.The protocols were approved by the Animal Care and Use Committee, GIBH. Animals were maintained on standard animal chow and waterad libitum, in a climate-controlled room (23±1 °C 30–70% relative humidity, a minimumof tenexchangesof roomairperhouranda12hlight/darkcycle)foroneweekpriortoexperiments.
3 Pharmacokinetic studies
Compounds BGAz-001 ，BGAz-002 ，BGAz-003 ，BGAz-004 and BGAz-005 were dissolved mixed in a solution containing DMSO (2%),ethanol (4%), Cremophor EL (4%) and ddH2O (90%); Pharmacokinetic propertiesof KM (male) were determined following IV, PO and IP administration. Animals were randomly distributed into three experimentalgroups(n=4).ThePOgroupwasgivenmixedsolutionwith5mg/kgbygastricgavage.TheIVgroup was dosed with mixed solution 1mg/kg byinjection into the tail vein. The IP group was dosed with mixed solution 1mg/kg by intraperitoneal injection. After single administration, whole blood samples (100 μL) were obtained from the orbital venousplexus atthe followingtime pointsafter dosing:5, 15,30 minand 1,3, 5,8, 24hour (PO and IP groups) and at the following time points after dosing 2, 10, 30min and 1, 3, 5, 8,24 hour (IV group). Wholeblood samples were collected in heparinised tubes. The plasma fraction was immediately separated by centrifugation. The micewerehumanelyeuthanasiabycarbondioxide24hoursafterexperimentwithoutpain.
4 Plasma sample and brain sample analysis
4.1 Standard curve sample preparation
ThecompoundsweredissolvedinDMSO(2mg/mL)anddilutedwithtoseriesconcentration(methanol:H 2O,1:1,10 μL) and blank plasma (50 μL) were added to 1.5 mL tubes and vortexed for 3 min, then acetonitrile-containing internalstandard(150μL)wasaddedandvortexedforafurther5min,andsubsequentlyspuninacentrifugeat13000 […]
4.2 Plasma and preparation
Plasmasampleswerepreparedusingaproteinprecipitationmethod.Solution(10μL,methanolH 2O,1:1)andplasma samples(50μL)wereaddedto1.5mLtubesandvortexfor3min,thenacetonitrile-containinginternalstandard(150 μL)wasaddedandvortexfor5min,andsubsequentlyspuninacentrifugeat13000× gfor40minat4°C.
Aftercentrifugation,supernatant(100μL)wastransferto96wellplatesandanalysedbyLC-MS/MSusinganAgilent 1290InfinityIIHPLCandanAgilentTechnologies6470TripleQuadLC/MS.

[2] = IP 1 mg/kg, cassette, mean of animals
[3] = IV 1 mg/kg, cassette, mean of animals
[4] = PO 5 mg/kg, cassette, mean of animals
[5] = male, KM, mouse, plasma, IP 1 mg/kg, cassette
[6] = male, KM, mouse, plasma, IP 1 mg/kg, cassette, mean of animals
[7] = male, KM, mouse, plasma, IV 1 mg/kg, cassette
[8] = male, KM, mouse, plasma, IV 1 mg/kg, cassette, mean of animals
[9] = male, KM, mouse, plasma, PO 5 mg/kg, cassette
[10] = male, KM, mouse, plasma, PO 5 mg/kg, cassette, mean of animals

## CNCC1CC(c2ccc(OC(F)(F)F)cc2)N1Cc1ccccc1OC(F)(F)F (stereo not shown) [BGAz-005]
M. bovis BCG
  MBC: 12 to 25 µM (≈ 5.21 to 10.9 µg/mL)
[1]; [2]
  AUMC(0-t): 2746.024 **μg
  AUMC(0-∞): 5711.413 **μg
  CLz/F: 2.157 L/kg
  C_last: 5.459 µg
  R_AUC(t/∞): 83.575%
  VRT(0-t): 43.817 ^2
  VRT(0-∞): 202.71 ^2
  λz: 0.079 1/
[1]; IP 1 mg/kg, cassette, summary table
  AUC(0-∞): 464.151 µg·h
[1]; [3]
  AUMC(0-t): 2221.012 **μg
  AUMC(0-∞): 3469.367 **μg
  CLz/F: 2.386 L/kg
  C_last: 2.531 µg
  R_AUC(t/∞): 91.7%
  VRT(0-t): 45.323 ^2
  VRT(0-∞): 139.16 ^2
  Vz/F: 28.599 L/kg
  λz: 0.098 1/
[1]; IV 1 mg/kg, cassette, summary table
  AUC(0-∞): 424.729 µg·h
[1]; PO 5 mg/kg vs IV 1 mg/kg, cassette
  BA: 72.63%
[1]; [4]
  AUMC(0-t): 6391.819 **μg
  AUMC(0-∞): 80528.925 **μg
  CLz/F: 14.928 L/kg
  C_last: 18.45 µg
  R_AUC(t/∞): 55.825%
  VRT(0-t): 47.178 ^2
  VRT(0-∞): 2247.307 ^2
  λz: 0.017 1/
[1]; PO 5 mg/kg, cassette, summary table
  AUC(0-∞): 1542.381 µg·h
[1]; male, KM, mouse, plasma, ip, 1 mg/kg, IP 1 mg/kg, cassette, mean of animals, read-out: AUC(0-∞)
  AUC(0-inf): 464 ng·h/mL
[1]; male, KM, mouse, plasma, ip, 1 mg/kg, IP 1 mg/kg, cassette, mean of animals, read-out: Cmax
  Cmax: 41.9 ng/mL
[1]; male, KM, mouse, plasma, ip, 1 mg/kg, IP 1 mg/kg, cassette, mean of animals, read-out: Tmax
  Tmax: 0.646 h
[1]; male, KM, mouse, plasma, ip, 1 mg/kg, IP 1 mg/kg, cassette, summary table, read-out: Cmax
  Cmax: 41.9 ng/mL
[1]; male, KM, mouse, plasma, ip, 1 mg/kg, IP 1 mg/kg, cassette, summary table, read-out: T1/2 (converted)
  half-life: 9.34 h
[1]; male, KM, mouse, plasma, ip, 1 mg/kg, IP 1 mg/kg, cassette, summary table, read-out: Tmax
  Tmax: 0.646 h
[1]; male, KM, mouse, plasma, iv, 1 mg/kg, IV 1 mg/kg, cassette, mean of animals, read-out: AUC(0-∞)
  AUC(0-inf): 425 ng·h/mL
[1]; male, KM, mouse, plasma, iv, 1 mg/kg, IV 1 mg/kg, cassette, mean of animals, read-out: Cmax
  Cmax: 320 ng/mL
[1]; male, KM, mouse, plasma, iv, 1 mg/kg, IV 1 mg/kg, cassette, mean of animals, read-out: Tmax
  Tmax: 0.033 h
[1]; male, KM, mouse, plasma, iv, 1 mg/kg, IV 1 mg/kg, cassette, summary table, read-out: Cmax
  Cmax: 320 ng/mL
[1]; male, KM, mouse, plasma, iv, 1 mg/kg, IV 1 mg/kg, cassette, summary table, read-out: T1/2 (converted)
  half-life: 8.05 h
[1]; male, KM, mouse, plasma, iv, 1 mg/kg, IV 1 mg/kg, cassette, summary table, read-out: Tmax
  Tmax: 0.033 h
[1]; male, KM, mouse, plasma, po, 5 mg/kg, 5 mg/kg PO, cassette dosing, read-out: AUC0-inf
  AUC(0-inf): 1540 ng·h/mL
[1]; male, KM, mouse, plasma, po, 5 mg/kg, 5 mg/kg PO, cassette dosing, read-out: Cmax (Mouse, P.O.)
  Cmax: 43.1 ng/mL
[1]; male, KM, mouse, plasma, po, 5 mg/kg, 5 mg/kg PO, cassette dosing, read-out: T1/2 (Mouse, P.O.) (converted)
  half-life: 35.7 h
[1]; male, KM, mouse, plasma, po, 5 mg/kg, 5 mg/kg PO, cassette dosing, read-out: Tmax (Mouse, P.O.)
  Tmax: 6 h
[1]; male, KM, mouse, plasma, po, 5 mg/kg, PO 5 mg/kg, cassette, mean of animals, read-out: AUC(0-∞)
  AUC(0-inf): 1540 ng·h/mL
[1]; male, KM, mouse, plasma, po, 5 mg/kg, PO 5 mg/kg, cassette, mean of animals, read-out: Cmax
  Cmax: 43.1 ng/mL
[1]; male, KM, mouse, plasma, po, 5 mg/kg, PO 5 mg/kg, cassette, mean of animals, read-out: Tmax
  Tmax: 6 h
[1]; male, KM, mouse, plasma, po, 5 mg/kg, PO 5 mg/kg, cassette, summary table, read-out: Cmax
  Cmax: 43.1 ng/mL
[1]; male, KM, mouse, plasma, po, 5 mg/kg, PO 5 mg/kg, cassette, summary table, read-out: T1/2 (converted)
  half-life: 35.7 h
[1]; male, KM, mouse, plasma, po, 5 mg/kg, PO 5 mg/kg, cassette, summary table, read-out: Tmax
  Tmax: 6 h
[1]; [5]
  concentration at 0.083 h: 27 ng/mL and 60 nM
  concentration at 0.25 h: 70 nM and 29.8 ng/mL
  concentration at 0.5 h: 80 nM and 36.3 ng/mL
  concentration at 1 h: 90 nM and 39.8 ng/mL
  concentration at 3 h: 80 nM and 33.4 ng/mL
  concentration at 5 h: 50 nM and 21.3 ng/mL
  concentration at 8 h: 40 nM and 15.4 ng/mL
  concentration at 24 h: 10 nM and 5.44 ng/mL
[1]; [6]
  AUC(0-t): 388 ng·h/mL
  MRT last: 7.13 h
  MRT inf: 12.3 h
  Vd/F: 28.9 L/kg
[1]; male, KM, mouse, plasma, IV 1 mg/kg, cassette, 0.033 h
  concentration at 0.033 h: 320 ng/mL and 740 nM
[1]; male, KM, mouse, plasma, IV 1 mg/kg, cassette, 0.167 h
  concentration at 0.167 h: 330 nM and 145 ng/mL
[1]; [7]
  concentration at 0.5 h: 170 nM and 75.2 ng/mL
  concentration at 1 h: 120 nM and 50.1 ng/mL
  concentration at 3 h: 60 nM and 25.4 ng/mL
  concentration at 5 h: 40 nM and 16.1 ng/mL
  concentration at 8 h: 20 nM and 10.3 ng/mL
  concentration at 24 h: 10 nM and 5.2 ng/mL
[1]; [8]
  C0: 392 ng/mL
  AUC(0-t): 392 ng·h/mL
  MRT last: 5.5 h
  MRT inf: 8.24 h
[1]; [9]
  concentration at 0.083 h: 7.08 ng/mL and 20 nM
  concentration at 0.25 h: 30 nM and 11.3 ng/mL
  concentration at 0.5 h: 50 nM and 20.4 ng/mL
  concentration at 1 h: 70 nM and 32.5 ng/mL
  concentration at 3 h: 90 nM and 39.1 ng/mL
  concentration at 5 h: 90 nM and 37.6 ng/mL
  concentration at 8 h: 90 nM and 40.2 ng/mL
  concentration at 24 h: 60 nM and 24.3 ng/mL
[1]; [10]
  AUC(0-t): 621 ng·h/mL
  MRT last: 8.45 h
  MRT inf: 38.7 h
  Vd/F: 129 L/kg
